Results as given in patent US20020115640A1, “Farnesyltransferase inhibitors” (priority 2000, published 2002).

Target: T1, farnesyltransferase (Rattus norvegicus, UniProt Q02293+Q04631)
T1 construct: The enzyme can be purified according to Cell, 62: 81-88 (1990), utilizing steps one, two, and three; from tissue; host or cells: rat brain
Experiment: Inhibition of farnesyltransferase (3H-farnesyldiphosphate / H-Ras filter assay)
Type: biochemical
Settings: test compound at 10^−7 M; 3H-farnesyldiphosphate 0.6 μM, H-Ras 5.0 μM, 37° C., 30 minutes

T1 sequence (Q02293 whole entry, one chain of several): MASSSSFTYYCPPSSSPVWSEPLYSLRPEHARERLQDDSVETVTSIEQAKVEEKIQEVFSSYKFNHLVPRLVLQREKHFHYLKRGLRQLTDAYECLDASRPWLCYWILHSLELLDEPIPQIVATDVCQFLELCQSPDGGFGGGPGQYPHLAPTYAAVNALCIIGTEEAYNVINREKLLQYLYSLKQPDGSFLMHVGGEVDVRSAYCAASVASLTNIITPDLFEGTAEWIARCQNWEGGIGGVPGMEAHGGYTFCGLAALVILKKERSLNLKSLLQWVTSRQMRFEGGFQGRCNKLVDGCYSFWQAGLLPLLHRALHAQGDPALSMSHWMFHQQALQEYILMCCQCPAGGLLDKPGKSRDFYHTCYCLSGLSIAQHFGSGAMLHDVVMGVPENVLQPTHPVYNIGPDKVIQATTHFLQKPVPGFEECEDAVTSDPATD

Structure (SMILES)	inhibition at 0.1 µM [%]
Cn1cncc1C(OCc1cc(=O)c(C#N)cn1-c1cccc(Cl)c1)c1ccc(C#N)cc1 (stereo not shown) [Example 42, 1-(3-chlorophenyl)-6-(((4-cyanophenyl)(1-methyl-1H-imidazol-5-yl)methoxy)methyl)-4-oxo-1,4-dihydro-3-pyridinecarbonitrile]	87
Cn1cncc1C(OCc1cn(C)c(=O)cc1-c1cccc(Cl)c1)c1ccc(C#N)cc1 (stereo not shown) [Example 45, 4-(((4-(3-chlorophenyl)-1-methyl-6-oxo-1,6-dihydro-3-pyridinyl)methoxy)(1-methyl-1H-imidazol-5-yl)methyl)benzonitrile]	87
Cn1cncc1C(OCc1ccc(Cl)cc1-c1cccc(C#N)c1)c1ccc(C#N)cc1 (stereo not shown) [Example 14, 3′-chloro-6′-(((4-cyanophenyl)(1-methyl-1H-imidazol-5-yl)methoxy)methyl)(1,1′-biphenyl)-3-carbonitrile]	96
COc1ccccc1-c1cc(Cl)ccc1COC(c1ccc(C#N)cc1)c1cncn1C (stereo not shown) [Example 5, 4-(((5-chloro-2′-methoxy(1,1′-biphenyl)-2-yl)methoxy)(1-methyl-1H-imidazol-5-yl)methyl)benzonitrile]	79

Same assay, conditions: test compound at 10^−8 M; 3H-farnesyldiphosphate 0.6 μM, H-Ras 5.0 μM, 37° C., 30 minutes

Structure (SMILES)	inhibition at 0.01 µM [%]
Cn1cncc1C(F)(COc1ccc(C#N)cc1-c1ccc(OC(F)(F)F)cc1)c1ccc(C#N)cc1 (stereo not shown) [Example 64, 6-(2-(4-cyanophenyl)-2-fluoro-2-(1-methyl-1H-imidazol-5-yl)ethoxy)-4′-(trifluoromethoxy)-1,1′-biphenyl-3-carbonitrile]	90
Cn1cncc1C(F)(COc1ccc(C#N)cc1-c1cccc(Cl)c1)c1ccc(C#N)cc1 (stereo not shown) [Example 78, 3′-chloro-6-(2-(4-cyanophenyl)-2-fluoro-2-(1-methyl-1H-imidazol-5-yl)ethoxy)-1,1′-biphenyl-3-carbonitrile]	97
Cn1cncc1C(O)(COc1ccc(C#N)cc1-c1ccc(Cl)c(Cl)c1)c1ccc(C#N)cc1 (stereo not shown) [Example 71, 3′,4′-dichloro-6-(2-(4-cyanophenyl)-2-hydroxy-2-(1-methyl-1H-imidazol-5-yl)ethoxy)-1,1′-biphenyl-3-carbonitrile]	97
Cn1cncc1C(O)(COc1ccc(C#N)cc1-c1cc(Cl)cc(Cl)c1)c1ccc(C#N)cc1 (stereo not shown) [Example 73, 3′,5′-dichloro-6-(2-(4-cyanophenyl)-2-hydroxy-2-(1-methyl-1H-imidazol-5-yl)ethoxy)-1,1′-biphenyl-3-carbonitrile]	96
Cn1cncc1C(F)(COc1ccc(C#N)cc1-c1cccc(OC(F)(F)F)c1)c1ccc(C#N)cc1 (stereo not shown) [Example 70, 6-(2-(4-cyanophenyl)-2-fluoro-2-(1-methyl-1H-imidazol-5-yl)ethoxy)-3′-(trifluoromethoxy)-1,1′-biphenyl-3-carbonitrile]	94
COc1cccc(-c2cc(C#N)ccc2N(C)CC(O)(c2ccc(C#N)cc2)c2cncn2C)c1 (stereo not shown) [Example 84, 6-((2-(4-cyanophenyl)-2-hydroxy-2-(1-methyl-1H-imidazol-5-yl)ethyl)(methyl)amino)-3′-methoxy-1,1′-biphenyl-3-carbonitrile]	92
